# Reference: US11786595B2, “Methods for radiotherapy to trigger light activation drugs” (priority 2015, dated 2023)
# Key:
# [1] = test system: Venezuelan equine encephalitis virus (VEEV); conditions: cited from earlier work
# [2] = test system: Zaire Ebola virus (ZEBOV); conditions: cited from earlier work
# Acinetobacter baumannii = conditions: loaded into MCM-41 host, visible light 100 milliWatts per square centimeter; cited from earlier work
# B16 melanoma cells [3] = test: Flow cytometry of MHC class I expression after X-ray/Cherenkov exposure; format: cell-based; conditions: 72 hour incubation
# B16 melanoma cells [4] = test: CellTiter-Glo luminescence (cell viability) versus TMP concentration, with or without Cherenkov light; format: cell-based; conditions: 6 MV x-rays at 2 Gy, 48-hour incubation, with Cherenkov light vs without
compound,measurement,setting,value
"[N-]=[N+]=Nc1cccc2c(I)cccc12 [INA, 1,5-iodonaphthyl-azide]",virus inactivation,[1],efficiently inactivate
same,virus infectivity after INA treatment,[2],completely noninfectious
[Mn(PaPy3)(NO)](ClO4) [{Mn—NO}],clearing of bacteria by released nitric oxide,Acinetobacter baumannii,effectively cleared the bacteria
"Cc1cc2cc3c(C)cc(=O)oc3c(C)c2o1 [TMP, 4,5′,8-trimethyl psoralen]",MHC 1 expression,B16 melanoma cells [3]; 15 MV X-ray exposure with Cherenkov light,13.7%
same,MHC 1 expression,B16 melanoma cells [3]; control with no Cherenkov (x-rays only),8.01%
same,MHC 1 expression,B16 melanoma cells [3]; control with no x-rays,5.46%
same,cell viability / cell kill,B16 melanoma cells [4],cell viability is reduced
